Assay results from the NIST ThermoML archive (doi:10.1016/j.jct.2007.03.012).
± gives the expanded uncertainty stated by the source.

Assay: xn = mol fraction of the nth substance listed
Details: Liquid, Bellows volumetry

CC(C)C [2-methylpropane] + CCC
mass density [kg/m3]
Details	280 K	300 K	320 K	340 K	360 K	380 K	400 K	420 K	440 K
1000 kPa, x2 = 0.2765	562.64 ± 0.51	–	508.11 ± 0.46	–	–	–	–	–	–
1000 kPa, x2 = 0.5052	551.34 ± 0.5	524.22 ± 0.47	–	–	–	–	–	–	–
1000 kPa, x2 = 0.7468	537.6 ± 0.48	–	–	–	–	–	–	–	–
2000 kPa, x2 = 0.2765	564.6 ± 0.51	–	511.38 ± 0.46	–	–	–	–	–	–
2000 kPa, x2 = 0.5052	553.2 ± 0.5	526.6 ± 0.47	497.06 ± 0.45	461.7 ± 0.42	–	–	–	–	–
2000 kPa, x2 = 0.7468	539.46 ± 0.49	–	479.56 ± 0.43	–	–	–	–	–	–
3000 kPa, x2 = 0.2765	566.3 ± 0.51	–	514.42 ± 0.46	–	445.63 ± 0.4	–	–	–	–
3000 kPa, x2 = 0.5052	555.01 ± 0.5	529.08 ± 0.48	500.46 ± 0.45	467.03 ± 0.42	423.27 ± 0.38	–	–	–	–
3000 kPa, x2 = 0.7468	541.38 ± 0.49	–	483.56 ± 0.44	–	–	–	–	–	–
5000 kPa, x2 = 0.2765	569.29 ± 0.51	–	520.11 ± 0.47	–	458.57 ± 0.41	–	353.34 ± 0.32	–	–
5000 kPa, x2 = 0.5052	558.39 ± 0.5	533.59 ± 0.48	506.63 ± 0.46	476.37 ± 0.43	439.84 ± 0.4	390.11 ± 0.35	–	–	–
5000 kPa, x2 = 0.7468	545.05 ± 0.49	–	490.55 ± 0.44	–	415.25 ± 0.37	–	–	–	–
10000 kPa, x2 = 0.2765	576.64 ± 0.52	–	531.88 ± 0.48	–	480.82 ± 0.43	–	418.11 ± 0.38	–	–
10000 kPa, x2 = 0.5052	565.97 ± 0.51	543.3 ± 0.49	519.45 ± 0.47	493.82 ± 0.44	465.78 ± 0.42	433.73 ± 0.39	396.98 ± 0.36	353.95 ± 0.32	–
10000 kPa, x2 = 0.7468	553.18 ± 0.5	–	504.71 ± 0.45	–	447.04 ± 0.4	–	370.08 ± 0.34	–	–
20000 kPa, x2 = 0.2765	589.39 ± 0.53	–	550.35 ± 0.5	–	509.06 ± 0.46	–	464.84 ± 0.42	–	418.57 ± 0.38
20000 kPa, x2 = 0.5052	579.24 ± 0.52	559.15 ± 0.5	538.88 ± 0.49	518.13 ± 0.47	496.7 ± 0.45	473.66 ± 0.43	450.18 ± 0.41	426.22 ± 0.39	401.72 ± 0.36
20000 kPa, x2 = 0.7468	566.92 ± 0.51	–	525.65 ± 0.47	–	481.36 ± 0.43	–	432.58 ± 0.39	–	381.56 ± 0.35
30000 kPa, x2 = 0.2765	600.09 ± 0.54	–	564.57 ± 0.51	–	528.67 ± 0.48	–	491.48 ± 0.44	–	455.11 ± 0.41
30000 kPa, x2 = 0.5052	590.28 ± 0.53	572.02 ± 0.52	553.95 ± 0.5	535.68 ± 0.48	517.29 ± 0.47	498.04 ± 0.45	478.86 ± 0.43	459.76 ± 0.42	441.26 ± 0.4
30000 kPa, x2 = 0.7468	578.25 ± 0.52	–	541.33 ± 0.49	–	503.41 ± 0.45	–	463.78 ± 0.42	–	424.79 ± 0.39
40000 kPa, x2 = 0.2765	609.41 ± 0.55	–	576.53 ± 0.52	–	543.99 ± 0.49	–	510.96 ± 0.46	–	479.61 ± 0.43
40000 kPa, x2 = 0.5052	599.56 ± 0.54	582.88 ± 0.53	566.43 ± 0.51	549.83 ± 0.5	533.27 ± 0.48	516.11 ± 0.47	499.19 ± 0.45	482.81 ± 0.44	467.04 ± 0.42
40000 kPa, x2 = 0.7468	588.02 ± 0.53	–	553.96 ± 0.5	–	520.23 ± 0.47	–	485.32 ± 0.44	–	452.26 ± 0.41
50000 kPa, x2 = 0.2765	617.7 ± 0.56	–	586.9 ± 0.53	–	556.8 ± 0.5	–	526.54 ± 0.48	–	498.3 ± 0.45
50000 kPa, x2 = 0.5052	608.07 ± 0.55	592.36 ± 0.53	576.96 ± 0.52	561.5 ± 0.51	546.45 ± 0.49	530.72 ± 0.48	515.41 ± 0.47	500.59 ± 0.45	486.62 ± 0.44
50000 kPa, x2 = 0.7468	596.76 ± 0.54	–	564.8 ± 0.51	–	534.15 ± 0.48	–	502.4 ± 0.45	–	472.75 ± 0.43
60000 kPa, x2 = 0.2765	625.03 ± 0.56	–	595.84 ± 0.54	–	567.78 ± 0.51	–	539.61 ± 0.49	–	513.76 ± 0.47
60000 kPa, x2 = 0.5052	615.65 ± 0.56	600.74 ± 0.54	586.25 ± 0.53	571.92 ± 0.52	557.79 ± 0.51	543.03 ± 0.49	528.8 ± 0.48	515.22 ± 0.47	502.39 ± 0.46
60000 kPa, x2 = 0.7468	604.59 ± 0.55	–	574.56 ± 0.52	–	545.73 ± 0.5	–	516.38 ± 0.47	–	489.17 ± 0.45
70000 kPa, x2 = 0.2765	632.03 ± 0.57	–	604.2 ± 0.55	–	577.53 ± 0.52	–	550.88 ± 0.5	–	526.7 ± 0.48
70000 kPa, x2 = 0.5052	622.58 ± 0.56	608.66 ± 0.55	594.64 ± 0.54	581.17 ± 0.53	567.64 ± 0.52	553.8 ± 0.5	540.38 ± 0.49	527.71 ± 0.48	515.83 ± 0.47
70000 kPa, x2 = 0.7468	611.65 ± 0.55	–	583.04 ± 0.53	–	555.96 ± 0.5	–	528.32 ± 0.48	–	503.08 ± 0.46
80000 kPa, x2 = 0.2765	638.32 ± 0.58	–	611.65 ± 0.55	–	586.26 ± 0.53	–	560.85 ± 0.51	–	538.18 ± 0.49
80000 kPa, x2 = 0.5052	629.12 ± 0.57	615.58 ± 0.56	602.37 ± 0.55	589.45 ± 0.53	576.76 ± 0.52	563.25 ± 0.51	550.76 ± 0.5	538.65 ± 0.49	527.49 ± 0.48
80000 kPa, x2 = 0.7468	618.29 ± 0.56	–	590.88 ± 0.54	–	565.01 ± 0.51	–	538.83 ± 0.49	–	515.14 ± 0.47
90000 kPa, x2 = 0.2765	644.2 ± 0.58	–	618.46 ± 0.56	–	594.28 ± 0.54	–	570.04 ± 0.52	–	548.29 ± 0.5
90000 kPa, x2 = 0.5052	635.05 ± 0.57	622.2 ± 0.56	609.27 ± 0.55	597.11 ± 0.54	584.67 ± 0.53	572.07 ± 0.52	559.81 ± 0.51	548.42 ± 0.5	537.76 ± 0.49
90000 kPa, x2 = 0.7468	624.34 ± 0.56	–	598.03 ± 0.54	–	573.12 ± 0.52	–	548.28 ± 0.5	–	525.87 ± 0.48
100000 kPa, x2 = 0.2765	649.78 ± 0.59	–	625.01 ± 0.57	–	601.6 ± 0.55	–	578.09 ± 0.53	–	557.44 ± 0.51
100000 kPa, x2 = 0.5052	640.63 ± 0.58	628.29 ± 0.57	615.79 ± 0.56	603.84 ± 0.55	592.18 ± 0.54	579.89 ± 0.53	568.28 ± 0.52	557.24 ± 0.51	547.21 ± 0.5
100000 kPa, x2 = 0.7468	629.98 ± 0.57	–	604.67 ± 0.55	–	580.81 ± 0.53	–	557.19 ± 0.51	–	535.38 ± 0.49
120000 kPa, x2 = 0.2765	659.95 ± 0.6	–	636.48 ± 0.58	–	614.72 ± 0.56	–	592.86 ± 0.54	–	573.52 ± 0.52
120000 kPa, x2 = 0.5052	650.88 ± 0.59	639.23 ± 0.58	627.71 ± 0.57	616.54 ± 0.56	605.4 ± 0.55	593.88 ± 0.54	583.05 ± 0.53	572.89 ± 0.52	563.63 ± 0.52
120000 kPa, x2 = 0.7468	640.58 ± 0.58	–	616.69 ± 0.56	–	594.3 ± 0.54	–	571.88 ± 0.52	–	552.06 ± 0.51
140000 kPa, x2 = 0.2765	669.13 ± 0.61	–	647 ± 0.59	–	626.08 ± 0.57	–	605.66 ± 0.55	–	587.48 ± 0.54
140000 kPa, x2 = 0.5052	660.2 ± 0.6	649.29 ± 0.59	638.12 ± 0.58	627.45 ± 0.57	617.13 ± 0.56	606.29 ± 0.55	595.97 ± 0.54	586.39 ± 0.54	577.64 ± 0.53
140000 kPa, x2 = 0.7468	649.88 ± 0.59	–	627.42 ± 0.57	–	606.32 ± 0.55	–	584.98 ± 0.53	–	566.38 ± 0.52
160000 kPa, x2 = 0.2765	677.73 ± 0.62	–	656.27 ± 0.61	–	636.59 ± 0.59	–	616.77 ± 0.58	–	599.81 ± 0.57
160000 kPa, x2 = 0.5052	668.68 ± 0.62	658.13 ± 0.61	647.73 ± 0.6	637.64 ± 0.59	627.68 ± 0.59	617.17 ± 0.58	607.43 ± 0.57	598.41 ± 0.57	590.03 ± 0.56
160000 kPa, x2 = 0.7468	658.46 ± 0.61	–	636.99 ± 0.59	–	616.85 ± 0.58	–	596.72 ± 0.57	–	579.07 ± 0.56
180000 kPa, x2 = 0.2765	685.38 ± 0.63	–	665.05 ± 0.62	–	645.76 ± 0.6	–	626.93 ± 0.59	–	610.74 ± 0.58
180000 kPa, x2 = 0.5052	676.44 ± 0.62	666.5 ± 0.62	656.41 ± 0.61	646.63 ± 0.6	637.18 ± 0.6	627.17 ± 0.59	617.7 ± 0.58	609.2 ± 0.58	601.17 ± 0.57
180000 kPa, x2 = 0.7468	666.22 ± 0.62	–	645.7 ± 0.6	–	626.62 ± 0.59	–	606.99 ± 0.58	–	590.35 ± 0.57
200000 kPa, x2 = 0.2765	692.5 ± 0.64	–	673 ± 0.63	–	654.56 ± 0.61	–	636.12 ± 0.61	–	620.79 ± 0.59
200000 kPa, x2 = 0.5052	683.68 ± 0.63	674.16 ± 0.63	664.56 ± 0.62	655.11 ± 0.61	645.89 ± 0.6	636.19 ± 0.6	627.01 ± 0.6	619.16 ± 0.59	611.27 ± 0.58
200000 kPa, x2 = 0.7468	673.88 ± 0.63	–	653.87 ± 0.61	–	635.27 ± 0.6	–	616.65 ± 0.59	–	600.48 ± 0.58
